Patent US9121022B2, “Method for controlling herbicide-resistant plants” (priority 2010, dated 2015)
Where a name gives a salt, the structure may show the parent alone. {Alexa488} = Alexa Fluor 488 (Invitrogen) label

How the values were obtained:
[1] = tested on: glyphosate-resistant Palmer amaranth plants; test: additives (salts, EDTA, glycerin) to polynucleotide spray solutions, percent control and plant height (Example 35, Tables 26-28); assay type: in vivo; settings: additive in spray solution
Source text: The efficacy of different substances (including salts, a chelating agent, a humectant, and polyamines) as polynucleotide transferring agents or as enhancers of a known polynucleotide transferring agent was investigated.

[2] = tested on: glyphosate-resistant Palmer amaranth containing 16 copies of EPSPS; test: glyphosate counter-ions with EPSPS polynucleotides, percent control and plant height (Example 35, Table 29); assay type: in vivo; settings: for Palmer control (%): Table 29: glyphosate salt 1682 g acid equivalent per hectare, with or without EPSPS polynucleotides IDT [1]-[4] in 0.5% SILWET L-77, 2% ammonium sulfate, 16-copy EPSPS Palmer amaranth, 3 replicates
Source text: FIG. 38 depicts the effect of varying glyphosate counter-ions on herbicidal activity (presented as percent of weed control/kill, and as plant height) of topically applied polynucleotides (RNA) on glyphosate-resistant Palmer amaranth plants. A mixture of EPSPS polynucleotides (IDT [1] (SEQ ID NO:83-84), IDT [2] (SEQ ID NO:85-86), IDT [3] (SEQ ID NO:87-88), and IDT [4] (SEQ ID NO:89-90)) in 0.5% SILWET L-77® brand surfactant, 2% ammonium sulfate in 10 millimolar sodium phosphate buffer, pH 6.8 with 0.2% Roundup® WeatherMax® carrier (MON56151 tallowamine surfactant blend of tallowamine (16-18C) and cocoamine (12-14C) in the ratio of 55:45) and 1682 g acid equivalent per hectare of one of the glyphosate salts; K+ glyphosate, isopropylammonium+ glyphosate or monoethanolammonium+ glyphosate at 215 liters/acre by Milli spray on 3 replicates of 4-6 inch glyphosate-resistant Palmer amaranth containing 16 copies of EPSPS. Plant height was scored at 21 days after glyphosate treatment.

[3] = tested on: Glyphosate-resistant Palmer amaranth plants (33, 36, or 57 copies EPSPS); test: spermine, spermidine or ammonium sulfate with dsRNA then glyphosate (Example 35, FIG. 39); assay type: in vivo; settings: for performance compared with 2% ammonium sulfate: 1 or 10 millimolar
Procedure: The effect of the polyamine cations spermine (N,N′-bis(3-aminopropyl)butane-1,4-diamine) and spermidine (N-(3-aminopropyl)butane-1,4-diamine) on herbicidal activity of topically applied polynucleotides (RNA) on glyphosate-resistant Palmer amaranth plants was investigated. […] The dsRNA polynucleotide solutions were prepared with either 1 or 10 millimolar spermine or spermidine or 2% ammonium sulfate, in a 10 millimolar sodium phosphate (pH 6.8) buffer. Control solutions (without polynucleotides) were prepared with either 1 or 10 millimolar spermine or spermidine or 2% ammonium sulfate, in a 10 millimolar sodium phosphate (pH 6.8) buffer. Glyphosate-resistant Palmer amaranth plants (33, 36, or 57 copies EPSPS) were pre-sprayed with 1% SILWET L-77® brand surfactant. The dsRNA polynucleotide solutions (11.6 grams/acre) or buffer solutions were applied as drops on four lower fully expanded leaves of glyphosate resistant Palmer amaranth by pipetting. Two days following polynucleotide treatment the plants were sprayed with glyphosate (3360 g acid equivalent per hectare of Roundup® WeatherMAX® brand herbicide).

[4] = tested on: detached leaves of glyphosate-resistant Palmer amaranth; test: petiole uptake of fluorescently labelled ssDNA oligonucleotide into detached leaves (Example 9); set-up: species or system Palmer amaranth (Amaranthus palmeri)
Procedure: Petioles of detached leaves of glyphosate-resistant Palmer amaranth were placed in 200 mM sucrose solution with fluorescently labelled ssDNA oligonucleotides (SEQ ID NO:15). Leaf images were taken by Bio-Rad PharosFX imager equipped with a 488 nm laser from 4 h up to 48 h after uptake through petiole. Leaves incubated with 200 mM sucrose alone served as control.

[5] = tested on: Nicotiana benthamiana phytoene desaturase; test: single PDS ssDNA 22-mer on tobacco: bleaching of organs, seed set, germination (Example 12); assay type: in vivo
Procedure: Four-week old tobacco (Nicotiana benthamiana) plants were used in all treatments. Two fully expanded leaves (one cotyledon, one true leaf) were conditioned by dipping into freshly made surfactant solution (0.1% SILWET L-77® brand surfactant in double-distilled water) for a few seconds and allowed to dry for 15-30 minutes. Twenty microliters of a single-stranded DNA (ssDNA) 22-mer oligonucleotide with the sequence […] (SEQ ID NO:39), corresponding to the nucleotides at positions 1099-1120 of Nicotiana benthamiana phytoene desaturase (SEQ ID NO:2) was applied as a 25 micromolar solution in 0.01% SILWET L-77® brand surfactant in 5 millimolar sodium phosphate buffer, pH 6.8 to the top surface of each conditioned leaf for a total of 40 microliters (1 nanomole oligonucleotide) per plant. Control plants were treated with the SILWET® brand surfactant solution without the DNA oligonucleotide.
Flowers of both control and ssDNA-treated plants were allowed to set seed. Seeds were collected from mature fruits, weighed, and allowed to germinate. Seed weights were identical (about 11 mg per 100 seeds) and seed morphology appeared similar between the ssDNA-treated and the control plants.
In a separate assay using a similar procedure, tobacco plants were conditioned by dipping in 0.1% SILWET L-77® brand surfactant in double-distilled water, allowed to dry for 15-30 minutes, and treated with the PDS ssDNA 22-mer (SEQ ID NO:39) applied as a 25 micromolar solution in 0.01% SILWET L-77® brand surfactant in 5 millimolar sodium phosphate buffer, pH 6.8 to the top surface of each conditioned leaf for a total of 40 microliters (1 nanomole oligonucleotide) per plant. Other plants were not conditioned with a surfactant treatment, but were treated only with 1 nanomole of the PDS ssDNA 22-mer (SEQ ID NO:39) applied either by infiltration with a needleless syringe (shown in FIG. 18B) or by hand application of drops to the leaf surface (not shown in FIG. 18B), and either as a 25 micromolar solution in 0.01% SILWET L-77® brand surfactant in 5 millimolar sodium phosphate buffer, pH 6.8 or as a 25 micromolar solution in 5 millimolar sodium phosphate buffer, pH 6.8 (without surfactant). Negative control plants were treated with the SILWET® brand surfactant buffer solution without the DNA oligonucleotide. Results are depicted in FIG. 18B.

[6] = tested on: volunteer glyphosate-resistant corn plants; test: synthetic Pol III gene dsDNA on volunteer glyphosate-resistant corn in soybean (Example 8); assay type: in vivo; settings: glyphosate 7 days after dsDNA; 15 days later
Source text: This example illustrates the utility of employing a synthetic Pol III gene in compositions and methods of this invention. With reference to SEQ ID NO:3 and FIG. 2, a synthetic Pol III gene is created using elements from an Arabidopsis thaliana U6 snRNA gene to provide a dsDNA molecule with two copies of RGCCCR elements (bold and underlined), an upstream sequence element (USE) having the sequence “[…]” (SEQ ID NO:4, bold and underlined), a TATA box (bold and underlined), a “G” nucleotide (bold and underlined), anti-sense DNA (italics) corresponding to a bacterial DNA encoding an EPSPS protein (see U.S. Pat. RE39,247) that imparts resistance to glyphosate herbicide when expressed in transgenic corn plants, an “[…]” element (SEQ ID NO:5, bold and underlined) embedded in the anti-sense DNA, an “[…]” element (SEQ ID NO:6, bold and underlined) followed by sense DNA (lower case) and a “TTTTTT” terminator element (SEQ ID NO:7, bold and underlined). A solution of 0.1 wt % SILWET L-77® brand organosilicone surfactant and a solution of multiple copies of the dsDNA molecule are sprayed onto leaves of volunteer glyphosate-resistant corn plants growing in a field of glyphosate-resistant soybean plants, followed 7 days later by treatment with Roundup WeatherMAX® brand glyphosate herbicide. […]

OCC(O)CO [Glycerin, glycerin]
effect of additive on efficacy of the polynucleotides and herbicidal activity of glyphosate [1]: enhance the efficacy of the polynucleotides

CC(C)N.O=C(O)CNCP(=O)(O)O [IPA + glyphosate]
Palmer control (%) [2]: 9%

O=C(O)CNCP(=O)([O-])O.[K+] [K + glyphosate]
Palmer control (%) [2]: 23%

NCCO.O=C(O)CNCP(=O)(O)O [MEA + glyphosate]
Palmer control (%) [2]: 9%

Cl.N [ammonium chloride]
effect of additive on efficacy of the polynucleotides and herbicidal activity of glyphosate [1]: act similarly to ammonium sulfate

O=C(O)CN(CCN(CC(=O)O)CC(=O)O)CC(=O)O [ethylenediaminetetraacetic acid (EDTA), ethylenediaminetetraacetic acid]
effect of additive on efficacy of the polynucleotides and herbicidal activity of glyphosate [1]: act similarly to 2% ammonium sulfate

O=C(O)CNCP(=O)(O)O [isopropylammonium salt of glyphosate, glyphosate, reference compound]
herbicidal activity by glyphosate salt ([2]; 1682 g ae/ha glyphosate salt with IDT [1]-[4], 21 days after glyphosate treatment): better herbicidal activity compared to the potassium salt

NCCCCNCCCN [spermidine, N-(3-aminopropyl)butane-1,4-diamine]
effect on 33-copy plants of polyamine alone ([3]; 10 mM, without polynucleotides): stunted
performance compared with 2% ammonium sulfate [3]: neither spermine nor spermidine at 1 or 10 millimolar performed as well as 2% ammonium sulfate

NCCCNCCCCNCCCN [spermine, N,N′-bis(3-aminopropyl)butane-1,4-diamine]
performance compared with 2% ammonium sulfate [3]: neither spermine nor spermidine at 1 or 10 millimolar performed as well as 2% ammonium sulfate

CCCC[P+](CCCC)(CCCC)CCCC.[Br-] [tetrabutylphosphonium bromide]
effect of additive on efficacy of the polynucleotides and herbicidal activity of glyphosate [1]: act similarly to ammonium sulfate

ACCCTCCACGACTGCCCTTT (DNA, 5' {Alexa488}, backbone not given here; listed as Amaranthus palmeri) [Anti-sense_PO1_488, ssDNA anti-sense to Amaranthus palmeri EPSPS]
time of release from vascular tissue into cells ([4]; after treatment): 8 h
vascular uptake into leaf ([4]; petiole uptake in 200 mM sucrose, imaged 4 h to 48 h): slightly time-dependent vascular uptake

GGCAGTACAATTAAAGGAGATG (DNA, backbone not given here; listed as Nicotiana benthamiana) [SEQ ID NO:39]
bleaching without surfactant conditioning (FIG. 18B) ([5]; 1 nanomole by infiltration or hand application of drops, no conditioning): displayed bleaching of apical leaves, stems, and flowers
bleaching of apical leaves, stems, and flowers (FIG. 18A) ([5]; 1 nanomole per plant after surfactant conditioning): all displayed bleaching
germination rate ([5]; seeds from ssDNA-treated plants, control 95 out of 100): 4 out of 100
seed weight ([5]; seeds from ssDNA-treated plants, identical to control): about 11 mg per 100 seeds

B1: synthetic Pol III gene: dsDNA from Arabidopsis U6 snRNA gene elements with anti-sense and sense DNA of bacterial EPSPS (nucleic acid)
DNA: GGCCCATAGGCCTTTTTCTAAAATAGGCCCATTTAAGCTATTAACAATCTTCAAAAGTACCACATCGCTTAGGTAAAGAAAGCAGCTGAGTTTATATATGGTTAGAGACGAAGTAGTGATTGCGACGAGCGACGTCTCGCCCTCATCGCAATCCACGCCATTGAGCTTGAGGCCATTGGCGACGGCCGAGAGGCGGTCGCTTAAGATTAGCATGTCCTTGACGCGGAGTTCTTCCAGACCGTTCATCACGGTCGCCCCTTCCGCGAAGGCGGCGGCGACAGCGAGAATCGGATATTCGTCGATCATCGAAGGCGCGCGGTCTTCCGGCACCGTGACGCATAAACACGGTGCCGGAAGACCGCGCGCCTTCGATGATCGACGAATATCCGATTCTCGCTGTCGCCGCCGCCTTCGCGGAAGGGGCGACCGTGATGAACGGTCTGGAAGAACTCCGCGTCAAGGAAAGCGACCGCCTCTCGGCCGTCGCCAATGGCCTCAAGCTCAATGGCGTGGATTGCGATGAGGGCGAGACGTCGCTCGTCGTTTTTTTTGGCAAAAA
condition of soybean crop plants [6]: thriving
condition of volunteer corn plants [6]: dead
